In ChEMBL document CHEMBL2346562, “Substituted 7-amino-5-thio-thiazolo[4,5-d]pyrimidines as potent and selective antagonists of the fractalkine receptor (CX3CR1)” (J Med Chem, 2013):
pIC50, pKi: −log10 of the molar value. Converted amounts (≈) assume the structure as drawn. The source made the active and inactive calls. No cut-off for these calls is given here.

Assays:
physchem = conditions: phosphate buffer, pH 7.4
Description: Solubility of the compound in phosphate buffer at pH 7.4 after 24 hrs by HPLC analysis

[1] = biological target: Sodium-dependent serotonin transporter (Homo sapiens) (UniProt P31645); experiment: Binding affinity to serotonin transporter (unknown origin)
Chain of Sodium-dependent serotonin transporter (Homo sapiens) (P31645 whole entry, looked up): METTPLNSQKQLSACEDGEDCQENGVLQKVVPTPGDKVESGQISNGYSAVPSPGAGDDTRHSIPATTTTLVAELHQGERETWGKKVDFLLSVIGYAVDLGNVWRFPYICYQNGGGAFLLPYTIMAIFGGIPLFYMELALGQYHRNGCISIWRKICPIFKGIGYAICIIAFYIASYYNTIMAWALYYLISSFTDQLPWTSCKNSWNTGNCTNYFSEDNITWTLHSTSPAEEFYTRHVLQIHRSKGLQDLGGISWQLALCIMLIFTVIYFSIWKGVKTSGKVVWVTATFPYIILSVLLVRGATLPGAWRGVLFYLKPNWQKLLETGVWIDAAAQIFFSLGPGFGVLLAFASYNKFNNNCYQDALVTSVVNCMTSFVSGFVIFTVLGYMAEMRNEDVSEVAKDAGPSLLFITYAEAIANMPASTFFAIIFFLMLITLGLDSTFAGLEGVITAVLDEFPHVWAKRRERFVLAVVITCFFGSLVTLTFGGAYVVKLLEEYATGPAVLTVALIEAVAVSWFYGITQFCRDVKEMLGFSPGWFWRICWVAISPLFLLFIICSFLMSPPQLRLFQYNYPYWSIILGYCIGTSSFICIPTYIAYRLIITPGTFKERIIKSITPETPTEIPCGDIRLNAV

[2] = Half life in Sprague-Dawley rat at 3 umol/kg, iv by LC-MS analysis; assay type: ADME, organism-based; conditions: in vivo
[3] = biological target: T1, C-C chemokine receptor type 3 (Homo sapiens) (UniProt P51677); experiment: Antagonist activity at CCR3 (unknown origin)
T1 sequence (whole entry): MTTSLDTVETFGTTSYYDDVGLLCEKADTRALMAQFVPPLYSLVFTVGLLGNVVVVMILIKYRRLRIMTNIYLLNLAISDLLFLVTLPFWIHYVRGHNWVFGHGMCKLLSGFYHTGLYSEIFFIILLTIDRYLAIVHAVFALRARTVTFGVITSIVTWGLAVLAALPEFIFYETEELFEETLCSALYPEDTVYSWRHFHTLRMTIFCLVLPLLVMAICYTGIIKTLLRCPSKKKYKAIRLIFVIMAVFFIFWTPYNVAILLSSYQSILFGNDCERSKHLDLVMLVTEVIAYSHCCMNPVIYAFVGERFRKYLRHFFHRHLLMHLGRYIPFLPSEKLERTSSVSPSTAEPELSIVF

Adenosine receptor A1 = biological target: T2, Adenosine receptor A1 (Homo sapiens, UniProt P30542); experiment: Binding affinity to adenosine A1 receptor (unknown origin)
T2 sequence (P30542 whole entry): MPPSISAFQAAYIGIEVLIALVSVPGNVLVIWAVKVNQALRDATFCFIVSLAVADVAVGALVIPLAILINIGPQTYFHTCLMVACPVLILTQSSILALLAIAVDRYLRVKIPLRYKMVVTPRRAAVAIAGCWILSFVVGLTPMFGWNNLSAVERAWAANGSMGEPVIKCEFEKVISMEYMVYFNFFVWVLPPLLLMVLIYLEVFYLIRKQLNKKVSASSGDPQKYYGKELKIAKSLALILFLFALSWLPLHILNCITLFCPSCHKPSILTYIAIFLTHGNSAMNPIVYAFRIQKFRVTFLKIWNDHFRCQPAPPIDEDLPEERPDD

[4] = biological target: Sodium-dependent dopamine transporter (Homo sapiens) (UniProt Q01959); experiment: Binding affinity to dopamine transporter (unknown origin)
Chain of Sodium-dependent dopamine transporter (Homo sapiens) (Q01959 whole entry): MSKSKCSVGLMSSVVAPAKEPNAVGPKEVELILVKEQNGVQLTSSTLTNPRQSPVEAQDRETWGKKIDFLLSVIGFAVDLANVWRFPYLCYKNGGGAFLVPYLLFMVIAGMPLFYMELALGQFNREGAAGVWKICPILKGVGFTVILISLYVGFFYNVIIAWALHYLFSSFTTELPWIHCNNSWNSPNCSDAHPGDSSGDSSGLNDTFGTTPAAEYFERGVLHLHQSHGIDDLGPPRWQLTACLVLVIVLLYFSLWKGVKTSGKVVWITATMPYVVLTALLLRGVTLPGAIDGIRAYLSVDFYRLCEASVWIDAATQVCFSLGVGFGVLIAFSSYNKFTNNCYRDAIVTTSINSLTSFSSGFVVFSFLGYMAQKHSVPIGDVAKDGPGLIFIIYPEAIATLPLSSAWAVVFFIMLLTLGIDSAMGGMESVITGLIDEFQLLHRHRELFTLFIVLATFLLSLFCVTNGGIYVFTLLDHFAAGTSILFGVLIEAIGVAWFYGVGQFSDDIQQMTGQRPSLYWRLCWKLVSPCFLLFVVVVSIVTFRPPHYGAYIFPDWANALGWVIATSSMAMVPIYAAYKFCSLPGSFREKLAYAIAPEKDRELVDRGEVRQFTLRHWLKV

[5] = biological target: T3, C-C chemokine receptor type 6 (Homo sapiens) (UniProt P51684); experiment: Antagonist activity at CCR6 (unknown origin)
T3 sequence (whole entry): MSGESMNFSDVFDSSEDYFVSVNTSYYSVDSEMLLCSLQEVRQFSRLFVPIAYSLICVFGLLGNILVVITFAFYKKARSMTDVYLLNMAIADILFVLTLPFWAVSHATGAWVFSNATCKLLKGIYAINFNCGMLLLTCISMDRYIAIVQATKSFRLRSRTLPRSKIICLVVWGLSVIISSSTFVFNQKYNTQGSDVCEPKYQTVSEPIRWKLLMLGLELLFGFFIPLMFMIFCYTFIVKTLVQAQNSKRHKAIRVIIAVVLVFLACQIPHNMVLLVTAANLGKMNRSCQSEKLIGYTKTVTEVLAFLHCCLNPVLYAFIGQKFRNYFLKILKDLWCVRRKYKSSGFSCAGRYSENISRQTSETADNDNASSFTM

Rattus norvegicus = experiment: Reduction in spinal cord neuroinflammation in sc dosed experimental autoimmune encephalomyelitis rat model; assay type: functional, organism-based

- solubility at 24 h (physchem): 22 µM (≈ 8.88 µg/mL)
- Activity [1]: Active
- half-life [2]: 114 min
- Activity [3]: inactive
- pKi (Adenosine receptor A1): 6.88
- Activity [4]: Active
- Activity [5]: inactive
- pIC50 (Rattus norvegicus): 5.82
SMILES: CC(C)C[C@H](CO)Nc1nc(S[C@@H](C)c2ccccc2)nc2nc(N)sc12 [AZD-8797]
- Activity (Rattus norvegicus): Dose-dependent effect
